# Test results as given in patent publication US8575376B2, “Steroide anionic compounds, method of their production, usage and pharmaceutical preparation involving them” (Ustav Organicke Chemie A Biochemie Akademie Ved Ceske …, priority 2009, dated 2013).
# “Also recorded” adds a separate entry of the source.
# How the values were obtained:
# rats [1] = test: Active allothetic place avoidance (AAPA) task, compound applied alone; type: in vivo, rat; details: Example 9 1 and 10 mg/kg s.c., dizocilpine 0.1-0.3 mg/kg i.p.
# Description: The effect of compound from Example 9 on cognitive behaviors and locomotion was assessed using active allothetic place avoidance (AAPA) task, which requires intact hippocampi and ability of animals to navigate in space using distinct reference frames (spatial navigation and “cognitive coordination”) (Wesierska et al., 2005) and it also allows measuring changes in the accompanying locomotor activity. AAPA task training involves animals trained to move over a slowly rotating uniform circular arena, on which a prohibited sector is defined, entering which is punished by a mild footshock. A shock sector and its position can be determined solely by its relationship to distal orienting cues in the room (Stuchlik et al., 2008).
# This task is highly dependent upon hippocampal formation, with unilateral reversible ablation of this structure with TTX leading to avoidance deficit (Cimadevilla et al., 2001). Animals solving this task should walk in a direction opposite to arena rotation; otherwise it would be repeatedly brought to a fixed sector by arena rotation. We conducted 4 acquisition session of AAPA task, during which the sector location was always reinforced and remained stable throughout the training. Each session lasted 20 min.
# Control animals obtained saline intraperitoneally (i.p.) whilst experimental groups received subcutaneous (s.c.) injections of the compound from Example 9 at doses 1 mg/kg and 10 mg/kg (dissolved in cyclodextrin). Solution of compound from Example 9 (1 mg/2 ml or 10 mg/2 ml in cyclodextrin) was applied s.c. at a volume 2 ml/kg of body weight (b.w.). Intraperitonal application of dizocilpine (a non-competitive NMDA receptor antagonist; showing significant neuroprotective activity but exerting cognition-disturbing and psychotomimetic effects) was used as a positive control. Dizocilpine was applied at doses 0.1 mg/kg, 0.2 mg/kg and 0.3 mg/kg. It is worth noting that dizocilpine (albeit its experimental neuroprotective activity) is often used to model schizophrenia-like behaviors in […] and it has been repeatedly shown to exert a dose-dependent learning deficit and hyperlocomotion.
# Long-Evans male rats = test: Acute toxicity in rat; type: in vivo
# Description: Toxicity of compound from example 9 was tested on 2-month-old Long-Evans male rats. Animals were randomly assigned to 4 groups per 7 animals each. The first group was injected i.p. with saline, the second group received i.p. cyclodextrine, the third group obtained received the compound from example 9 at a dose 1 mg/kg (dissolved in β-cyclodextrine) and the last group compound from example 9 at a dose 100 mg/kg (dissolved in β-cyclodextrine). Animals were monitored for the period of 5 days. At the end of the experiment macroscopic dissection was carried out and organs were weighted (brain, heart, liver, spleen and kidneys). Animals' weight, food and water consumption was monitored daily. At the same time the behavior and locomotor activity was observed and animals were inspected for detection of effusions, constipation, etc.
# C6 glioma cell line = test: Growth of glioma cells in culture; type: cell-based; details: 0.1 and 1 μg in 50 ml β-cyclodextrine solution, 3 div + 6 days
# Description: The effect of compound from the example 9 (the model molecule) on growth of glioma cells was studied on C6 glioma cell line (ATTC, Rockville). The model molecule was tested at doses of 0.1 and 1 μg dissolved in 50 ml of β-cyclodextrine solution. Parallel control groups were administered by cholesterol at doses of 0.1 and 1 μg dissolved in 50 ml of β-cyclodextrine solution. The last group included in the experiment was left intact without any application.
# The cells were cultivated in vitro for 3 days (div). Afterwards tested molecule was applied and the cell culture was studied for additional 6 days. Olympus microscope with phase contrast and 200× magnification was used for the cell monitoring.
# rats [2] = test: Prepulse inhibition in MK-801 animal model of schizophrenia; type: in vivo, rat
# Description: The effect of i.p. administration of the compound from example 9 at doses of 0.1 and 1 mg/kg on sensorimotor gating in prepulse inhibition (PPI) test was evaluated. All testing occurred within the startle chamber (SR-LAB, San Diego Instruments, USA), which consisted of a clear Plexiglas cylinder (8.2 cm diameter, 10×20 cm) that rested on a piezoelectric accelerometer inside a ventilated and illuminated chamber. The piezoelectric accelerometer detected and transduced motion within the cylinder. A high frequency loudspeaker inside the chamber (24 cm above the animal) produced both a background noise of 62 dB and the acoustic stimuli. All rats were initially tested in a short session (5 min acclimatization period plus 5 single stimuli; 120 dB strong) 2 days before the experiment.
# The background noise (62 dB) was presented alone for 5 min (acclimatization period) and then continued throughout the session. […] The PPI was measured as a difference between the average responses to the single pulse and prepulse-pulse trials, and was expressed as a percent of the PPI [100−(mean response for prepulse-pulse trials/startle response for single pulse trials)×100]. […]
# rats [3] = test: Open-field locomotion in MK-801 animal model of schizophrenia; type: in vivo, rat
# Description: The effect of the compound from example 9 in doses of 0.1 mg/kg and 1 mg/kg on locomotor activity in open field test was evaluated. Locomotor activity expressed as a total distance travelled during 30 min exploration of a box (68×68×30 cm) located in a sound proof room was measured using a video tracking system for automation of the behavioural experiments (Noldus, EthoVision, Version 2.1.).
structure (smiles),measurement,setting,value
"CC(=O)[C@H]1CC[C@H]2[C@@H]3CC[C@@H]4C[C@H](OC(=O)[C@@H](N)CCC(=O)O)CC[C@]4(C)[C@H]3CC[C@]12C [Example 9, 20-Oxo-5β-pregnan-3α-yl L-glutamyl 1-ester]",maximum time avoided in AAPA,rats [1],did not significantly impaired cognitive performance compared to control animals
same,number of entrances into shock sector in AAPA,rats [1],neither of doses of compound from Example 9 caused worsening in this parameter
same,total distance traveled in AAPA (locomotor activity),rats [1]; 20-min sessions,failed to exhibit either decrease or increase in total distance compared to controls
same,short-term body weight gain,"Long-Evans male rats; 1 mg/kg i.p. (lower dose), 5 days",failed to affect short-term body weight gain
same,time to spontaneous awakening,Long-Evans male rats; 100 mg/kg i.p.,4 h
same,short-term body weight gain,"Long-Evans male rats; 100 mg/kg i.p. (higher dose), 5 days",tended to decrease it slightly
same,locomotor activity on the day of application,"Long-Evans male rats; 100 mg/kg i.p., 15 minutes after injection",decreased locomotor activity
same,anesthetic effect,"Long-Evans male rats; 100 mg/kg i.p., 45 minutes after injection",gradually changed into anesthesia of animals
same,"weight of body organs (brain, heart, liver, spleen, kidneys)","Long-Evans male rats; 1 and 100 mg/kg i.p., autopsy on day 5",no differences between controls and animals treated with the compound from example 9
same,signs of acute toxicity,"Long-Evans male rats; rat, i.p., doses up to 100 mg/kg, 5 days",does not exhibit any signs of acute toxicity; also recorded: absense of any signs of acute toxicity
same,effect on growth of glioma cells,C6 glioma cell line,overall slight cytostatic and pro-differentiation effect on glioma cells
same,prepulse inhibition deficit induced by MK-801,rats [2]; Example 9 0.1 or 1 mg/kg i.p. co-administered with MK-801 0.1 mg/kg,blocked the exacerbating effect of MK-801
same,prepulse inhibition,"rats [2]; Example 9 alone, 0.1 and 1 mg/kg i.p.",had no influence on prepulse inhibition
same,hyperlocomotion induced by MK-801 in open field,rats [3]; Example 9 0.1 or 1 mg/kg + MK-801 0.1 mg/kg,has not effect on hyperlocomotion state induced by MK-801
same,"locomotion in open field (total distance, 30 min)","rats [3]; substance alone, Example 9 0.1 and 1 mg/kg, MK-801 0.1 mg/kg",did not produce locomotor alterations in the open-field test
